What all share (test): KINOMEscan
Common to all, as to format: binding
Details in all cases: read-out: % control activity remaining

The target in one assay is T1, GRK4 (Homo sapiens, UniProt P32298).
T1 construct: purchased Eurofins DiscoverX KINOMEscan

The target in another assay is T2, ERBB3 (Homo sapiens, UniProt P21860).
T2 construct: purchased Eurofins DiscoverX KINOMEscan

The target of the next assay is T3, LATS1 (Homo sapiens, UniProt O95835).
T3 construct: purchased Eurofins DiscoverX KINOMEscan
T3 sequence (O95835 1-1130): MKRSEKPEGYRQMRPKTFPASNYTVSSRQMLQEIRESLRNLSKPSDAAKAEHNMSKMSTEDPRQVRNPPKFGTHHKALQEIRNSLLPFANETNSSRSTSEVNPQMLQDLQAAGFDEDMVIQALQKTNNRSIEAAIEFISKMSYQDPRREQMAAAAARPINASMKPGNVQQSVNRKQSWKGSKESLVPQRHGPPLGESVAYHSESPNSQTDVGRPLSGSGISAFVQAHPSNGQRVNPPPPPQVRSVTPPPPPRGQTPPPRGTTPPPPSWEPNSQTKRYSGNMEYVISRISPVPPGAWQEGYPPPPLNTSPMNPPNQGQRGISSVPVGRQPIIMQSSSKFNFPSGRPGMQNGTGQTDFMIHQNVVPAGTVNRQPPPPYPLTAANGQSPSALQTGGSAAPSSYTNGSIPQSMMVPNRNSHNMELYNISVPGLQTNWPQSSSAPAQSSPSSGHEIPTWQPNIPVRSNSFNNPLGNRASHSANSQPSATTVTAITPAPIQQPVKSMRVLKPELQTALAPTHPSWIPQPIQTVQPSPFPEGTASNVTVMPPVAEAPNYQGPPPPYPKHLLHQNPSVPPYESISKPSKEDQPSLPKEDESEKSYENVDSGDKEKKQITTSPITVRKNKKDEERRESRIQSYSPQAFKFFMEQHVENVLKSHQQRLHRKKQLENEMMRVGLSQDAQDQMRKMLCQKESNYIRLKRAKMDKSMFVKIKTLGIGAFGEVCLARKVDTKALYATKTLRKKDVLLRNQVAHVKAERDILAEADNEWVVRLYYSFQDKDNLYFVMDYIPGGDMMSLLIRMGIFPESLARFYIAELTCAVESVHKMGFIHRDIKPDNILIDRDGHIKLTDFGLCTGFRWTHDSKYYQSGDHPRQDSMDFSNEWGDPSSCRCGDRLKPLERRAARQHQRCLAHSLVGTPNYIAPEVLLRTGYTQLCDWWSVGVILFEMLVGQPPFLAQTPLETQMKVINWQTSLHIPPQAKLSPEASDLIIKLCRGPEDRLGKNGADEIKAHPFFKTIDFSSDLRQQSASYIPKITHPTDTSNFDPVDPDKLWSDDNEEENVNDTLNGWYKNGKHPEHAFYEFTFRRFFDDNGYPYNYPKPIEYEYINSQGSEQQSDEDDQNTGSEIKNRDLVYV

The target of another assay is T4, PAK2 (Homo sapiens, UniProt Q13177).
T4 construct: purchased Eurofins DiscoverX KINOMEscan

A further assay concerns the target T5, FLT3-autoinhibited (Homo sapiens, UniProt P36888).
T5 construct: purchased Eurofins DiscoverX KINOMEscan
T5 sequence (P36888 564-993 limits assumed): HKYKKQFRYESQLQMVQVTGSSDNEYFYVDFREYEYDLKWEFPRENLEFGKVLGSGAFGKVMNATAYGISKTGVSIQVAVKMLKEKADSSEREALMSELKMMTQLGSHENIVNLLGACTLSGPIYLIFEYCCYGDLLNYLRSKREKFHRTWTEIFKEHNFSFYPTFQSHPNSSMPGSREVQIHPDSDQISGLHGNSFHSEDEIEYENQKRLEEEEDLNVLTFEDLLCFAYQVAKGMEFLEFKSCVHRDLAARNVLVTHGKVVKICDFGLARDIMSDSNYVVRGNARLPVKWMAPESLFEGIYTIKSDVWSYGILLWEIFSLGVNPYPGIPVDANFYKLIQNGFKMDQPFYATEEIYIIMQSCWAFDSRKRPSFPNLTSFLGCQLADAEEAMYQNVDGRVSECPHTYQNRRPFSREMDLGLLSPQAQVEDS

Another assay has as its target T6, MST1 (Homo sapiens, UniProt Q13043).
T6 construct: purchased Eurofins DiscoverX KINOMEscan
T6 sequence (Q13043 1-487): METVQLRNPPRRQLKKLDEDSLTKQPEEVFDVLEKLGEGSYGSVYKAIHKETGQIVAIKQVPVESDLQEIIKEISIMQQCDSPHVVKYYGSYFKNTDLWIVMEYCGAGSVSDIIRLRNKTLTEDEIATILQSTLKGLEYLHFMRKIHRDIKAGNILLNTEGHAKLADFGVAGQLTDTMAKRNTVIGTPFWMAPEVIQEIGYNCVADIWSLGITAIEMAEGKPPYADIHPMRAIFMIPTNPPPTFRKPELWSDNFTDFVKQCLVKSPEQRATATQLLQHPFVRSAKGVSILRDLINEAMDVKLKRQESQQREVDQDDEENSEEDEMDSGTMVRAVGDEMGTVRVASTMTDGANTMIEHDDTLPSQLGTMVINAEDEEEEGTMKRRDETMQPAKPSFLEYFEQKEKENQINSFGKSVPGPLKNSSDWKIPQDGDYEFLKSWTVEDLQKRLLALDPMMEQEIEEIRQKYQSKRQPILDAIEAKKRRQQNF

The next assay has as its target T7, DRAK1 (Homo sapiens, UniProt Q9UEE5).
T7 construct: purchased Eurofins DiscoverX KINOMEscan
T7 sequence (Q9UEE5 1-414): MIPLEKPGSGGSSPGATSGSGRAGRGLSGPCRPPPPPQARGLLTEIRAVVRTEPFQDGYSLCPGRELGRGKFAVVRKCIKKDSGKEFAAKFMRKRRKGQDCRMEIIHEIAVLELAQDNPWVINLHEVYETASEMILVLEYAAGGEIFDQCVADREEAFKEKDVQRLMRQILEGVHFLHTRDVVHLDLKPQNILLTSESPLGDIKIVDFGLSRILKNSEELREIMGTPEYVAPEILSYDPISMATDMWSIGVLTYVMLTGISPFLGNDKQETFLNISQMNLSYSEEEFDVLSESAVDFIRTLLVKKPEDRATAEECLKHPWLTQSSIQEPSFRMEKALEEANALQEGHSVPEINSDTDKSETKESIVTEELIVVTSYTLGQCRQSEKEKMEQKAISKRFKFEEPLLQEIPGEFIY

A further assay concerns the target T8, PIK3CA(H1047Y) (Homo sapiens, UniProt P42336, H1047Y).
T8 construct: purchased Eurofins DiscoverX KINOMEscan

T1 sequence (P32298 whole entry): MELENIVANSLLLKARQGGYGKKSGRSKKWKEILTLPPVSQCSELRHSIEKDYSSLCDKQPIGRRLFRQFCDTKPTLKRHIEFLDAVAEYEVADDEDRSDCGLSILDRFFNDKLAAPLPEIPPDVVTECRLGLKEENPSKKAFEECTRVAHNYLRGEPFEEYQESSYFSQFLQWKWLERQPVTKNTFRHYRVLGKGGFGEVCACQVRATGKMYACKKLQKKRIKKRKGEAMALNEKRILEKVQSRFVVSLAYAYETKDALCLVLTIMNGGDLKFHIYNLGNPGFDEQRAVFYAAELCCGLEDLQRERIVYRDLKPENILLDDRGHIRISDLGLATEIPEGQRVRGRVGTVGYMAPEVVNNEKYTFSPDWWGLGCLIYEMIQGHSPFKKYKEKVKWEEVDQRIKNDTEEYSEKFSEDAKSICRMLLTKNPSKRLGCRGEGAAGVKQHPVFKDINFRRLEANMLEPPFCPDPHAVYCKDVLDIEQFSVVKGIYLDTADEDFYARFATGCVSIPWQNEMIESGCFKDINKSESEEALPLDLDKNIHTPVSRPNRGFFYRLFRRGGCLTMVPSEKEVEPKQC
T2 sequence (P21860 20-1342): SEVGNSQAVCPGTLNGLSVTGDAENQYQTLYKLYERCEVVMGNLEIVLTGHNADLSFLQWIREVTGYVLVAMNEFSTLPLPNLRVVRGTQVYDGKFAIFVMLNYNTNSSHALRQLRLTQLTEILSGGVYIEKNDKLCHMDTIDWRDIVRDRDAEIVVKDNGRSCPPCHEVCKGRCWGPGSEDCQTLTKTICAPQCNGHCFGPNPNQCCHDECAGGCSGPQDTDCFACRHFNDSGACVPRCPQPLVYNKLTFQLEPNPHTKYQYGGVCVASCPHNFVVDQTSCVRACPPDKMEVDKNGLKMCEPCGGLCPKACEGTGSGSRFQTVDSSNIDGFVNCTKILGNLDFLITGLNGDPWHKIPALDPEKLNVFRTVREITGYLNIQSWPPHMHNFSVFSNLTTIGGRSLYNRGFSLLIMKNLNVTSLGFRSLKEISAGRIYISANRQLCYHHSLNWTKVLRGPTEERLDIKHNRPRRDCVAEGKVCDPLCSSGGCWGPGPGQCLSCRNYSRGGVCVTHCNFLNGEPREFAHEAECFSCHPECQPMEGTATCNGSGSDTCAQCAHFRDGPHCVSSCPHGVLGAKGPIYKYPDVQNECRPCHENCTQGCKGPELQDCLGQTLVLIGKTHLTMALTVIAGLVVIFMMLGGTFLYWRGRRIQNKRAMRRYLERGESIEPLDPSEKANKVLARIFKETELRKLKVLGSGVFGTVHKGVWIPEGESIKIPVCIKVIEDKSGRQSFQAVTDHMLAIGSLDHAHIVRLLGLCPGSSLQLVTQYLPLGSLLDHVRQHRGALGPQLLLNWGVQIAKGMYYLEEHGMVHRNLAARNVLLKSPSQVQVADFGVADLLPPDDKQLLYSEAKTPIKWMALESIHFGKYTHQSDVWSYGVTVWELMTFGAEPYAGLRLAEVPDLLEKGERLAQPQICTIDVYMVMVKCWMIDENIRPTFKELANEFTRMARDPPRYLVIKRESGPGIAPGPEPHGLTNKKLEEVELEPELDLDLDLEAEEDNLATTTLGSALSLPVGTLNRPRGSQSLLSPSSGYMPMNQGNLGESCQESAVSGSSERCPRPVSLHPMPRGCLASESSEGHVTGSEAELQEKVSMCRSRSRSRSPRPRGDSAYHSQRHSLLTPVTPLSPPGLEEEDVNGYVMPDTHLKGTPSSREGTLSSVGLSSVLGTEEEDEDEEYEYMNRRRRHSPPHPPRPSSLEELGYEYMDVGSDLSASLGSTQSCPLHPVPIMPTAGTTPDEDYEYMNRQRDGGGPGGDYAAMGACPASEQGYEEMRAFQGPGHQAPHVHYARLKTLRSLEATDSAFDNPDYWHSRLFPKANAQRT
T8 sequence (P42336 whole entry H1047Y): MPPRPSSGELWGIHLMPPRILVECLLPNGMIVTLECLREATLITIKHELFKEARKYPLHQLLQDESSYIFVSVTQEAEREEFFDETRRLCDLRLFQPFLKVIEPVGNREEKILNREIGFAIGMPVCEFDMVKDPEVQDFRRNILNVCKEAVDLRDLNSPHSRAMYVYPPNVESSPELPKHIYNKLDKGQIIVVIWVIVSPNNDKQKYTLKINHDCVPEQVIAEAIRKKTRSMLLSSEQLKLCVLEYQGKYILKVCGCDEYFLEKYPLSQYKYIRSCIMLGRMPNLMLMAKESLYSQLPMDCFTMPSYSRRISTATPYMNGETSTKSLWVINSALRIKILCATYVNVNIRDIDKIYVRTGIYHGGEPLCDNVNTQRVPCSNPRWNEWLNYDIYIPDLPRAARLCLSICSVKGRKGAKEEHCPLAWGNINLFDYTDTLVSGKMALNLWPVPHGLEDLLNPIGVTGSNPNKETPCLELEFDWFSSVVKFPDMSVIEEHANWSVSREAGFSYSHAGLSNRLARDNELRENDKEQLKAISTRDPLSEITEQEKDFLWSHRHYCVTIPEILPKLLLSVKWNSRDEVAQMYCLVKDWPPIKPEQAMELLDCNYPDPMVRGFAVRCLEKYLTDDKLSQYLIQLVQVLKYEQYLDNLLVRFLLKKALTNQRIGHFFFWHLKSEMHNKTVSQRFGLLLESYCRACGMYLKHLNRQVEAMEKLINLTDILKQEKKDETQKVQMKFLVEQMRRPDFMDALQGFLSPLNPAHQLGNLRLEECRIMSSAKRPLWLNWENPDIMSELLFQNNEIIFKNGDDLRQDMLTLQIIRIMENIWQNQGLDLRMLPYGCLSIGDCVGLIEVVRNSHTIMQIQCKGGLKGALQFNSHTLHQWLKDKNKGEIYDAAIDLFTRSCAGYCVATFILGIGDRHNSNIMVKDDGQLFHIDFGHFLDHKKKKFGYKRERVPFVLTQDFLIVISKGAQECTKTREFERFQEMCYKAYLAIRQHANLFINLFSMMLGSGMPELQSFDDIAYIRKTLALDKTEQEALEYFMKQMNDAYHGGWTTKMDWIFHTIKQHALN
T4 sequence (Q13177 whole entry): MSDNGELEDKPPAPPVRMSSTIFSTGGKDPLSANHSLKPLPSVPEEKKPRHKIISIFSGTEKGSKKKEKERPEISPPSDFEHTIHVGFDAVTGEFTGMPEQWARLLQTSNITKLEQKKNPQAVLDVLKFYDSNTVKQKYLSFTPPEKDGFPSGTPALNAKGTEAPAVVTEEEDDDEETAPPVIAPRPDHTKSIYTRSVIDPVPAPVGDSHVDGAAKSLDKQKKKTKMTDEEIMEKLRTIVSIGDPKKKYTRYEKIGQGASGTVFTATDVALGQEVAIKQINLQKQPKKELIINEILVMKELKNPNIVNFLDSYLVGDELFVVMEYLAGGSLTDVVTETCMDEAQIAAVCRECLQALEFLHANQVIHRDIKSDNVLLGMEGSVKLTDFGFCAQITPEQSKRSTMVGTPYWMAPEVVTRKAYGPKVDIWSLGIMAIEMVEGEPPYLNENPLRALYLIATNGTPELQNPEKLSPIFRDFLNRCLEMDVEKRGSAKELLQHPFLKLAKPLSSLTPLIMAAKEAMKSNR

For `Clc1cc(NCC2CC2)c2ncc(-c3ccc4[nH]ncc4c3)n2n1` [compound 2, 6-Chloro-N-(cyclopropylmethyl)-3-(1H-indazol-5-yl)imidazo[1,2-b]pyridazin-8-amine], the remaining binding at 1 µM at GRK4 worked out at 42%; on ERBB3, 96%; on LATS1, 82%; on PAK2, 71%; on FLT3-autoinhibited it was 42%; at MST1 it was 100%. For the same molecule, the remaining binding at 1 µM at DRAK1 was found to be 18%; on PIK3CA(H1047Y), 89%.
Take `O=C(CN1CCOCC1)N[C@H]1CC[C@H](Nc2cc(Cl)nn3c(-c4ccc5[nH]ncc5c4)cnc23)CC1` [compound 26]: the remaining binding at 1 µM at GRK4 stood at 79%; on ERBB3, 99%; on LATS1 it was 82%; at PAK2, 76%; at FLT3-autoinhibited it was 0.65%; at MST1, 100%. The remaining binding at 1 µM stood at 20% at DRAK1 and 82% on PIK3CA(H1047Y).
Turning to `CN1CCC(CNc2cc(Cl)nn3c(-c4cc5nc(Nc6ccccc6)[nH]c5cc4F)cnc23)CC1` [compound 31, 6-Chloro-3-(6-fluoro-2-(phenylamino)-1H-benzo[d]imidazol-5-yl)-N-((1-methylpiperidin-4-yl)methyl)imidazo[1,2-b]pyridazin-8-amine], the remaining binding at 1 µM at GRK4 came to 100%; at ERBB3, 71%; at LATS1 it was 86%; at PAK2, 91%; at FLT3-autoinhibited, 90%; at MST1, 95%. The remaining binding at 1 µM came out at 91% at DRAK1 and 100% on PIK3CA(H1047Y).

The record behind these values is publication PMC6437697 (Journal of Medicinal Chemistry, 2019).
